Measurements from ChEMBL document CHEMBL1201862, “PubChem BioAssay data set” (2004).
Calls of active or inactive are those of the source.

Assays:
H9c2 = assay: cells; assay type: functional, cell-based; conditions: Rattus norvegicus, H9c2, Myocardium;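 further: confirmatory concentration-response retest of ultra-high-throughput screening hits for modulation of myocardial damage; cell death induced by hydrogen peroxide oxidative stress; compound pretreatment for 60 min then peroxide exposure for 2 h; potency is for protecting the cells against peroxide damage rather than for killing them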
Nonstructural protein 1 = Nonstructural protein 1 (Influenza A virus, UniProt Q194T2); assay type: functional, Influenza A virus (A/California/07/2009(H1N1))
Chain of Nonstructural protein 1 (Q194T2 whole entry): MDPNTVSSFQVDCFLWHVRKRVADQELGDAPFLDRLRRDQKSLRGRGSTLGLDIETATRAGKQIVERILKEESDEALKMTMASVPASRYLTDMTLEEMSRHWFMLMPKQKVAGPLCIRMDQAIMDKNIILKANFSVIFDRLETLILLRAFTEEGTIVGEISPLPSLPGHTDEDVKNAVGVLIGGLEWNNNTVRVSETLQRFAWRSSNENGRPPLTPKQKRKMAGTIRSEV

Leucine aminopeptidase = target: T1, Leucine aminopeptidase (Plasmodium falciparum 3D7, UniProt Q8IL11); assay: P. falciparum M17LAP inhibitors, primary screen, biochemical, fluorogenic H-Leu-NHMec substrate, 1536-well (AID 1619); assay type: functional
T1 sequence (Q8IL11 whole entry): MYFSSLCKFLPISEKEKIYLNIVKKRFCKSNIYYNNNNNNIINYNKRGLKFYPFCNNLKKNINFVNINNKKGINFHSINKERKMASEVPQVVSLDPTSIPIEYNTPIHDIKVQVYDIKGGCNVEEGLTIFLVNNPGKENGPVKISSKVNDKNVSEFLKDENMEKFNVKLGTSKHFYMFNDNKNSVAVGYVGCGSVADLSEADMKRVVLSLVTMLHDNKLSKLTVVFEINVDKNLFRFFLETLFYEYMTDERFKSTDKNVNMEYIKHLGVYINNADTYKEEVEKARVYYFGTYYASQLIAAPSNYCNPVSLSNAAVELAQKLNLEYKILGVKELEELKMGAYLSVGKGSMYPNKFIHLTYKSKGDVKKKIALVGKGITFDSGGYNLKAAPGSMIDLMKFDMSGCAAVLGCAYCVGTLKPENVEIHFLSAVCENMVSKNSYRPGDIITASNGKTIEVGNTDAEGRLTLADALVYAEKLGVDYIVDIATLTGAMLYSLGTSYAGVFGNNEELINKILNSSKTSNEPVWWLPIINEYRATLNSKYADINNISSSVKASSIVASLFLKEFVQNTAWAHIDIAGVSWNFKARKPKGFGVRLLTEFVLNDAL

[1] = target: Induced myeloid leukemia cell differentiation protein Mcl-1 (Homo sapiens, UniProt Q07820); assay type: functional
Chain of Induced myeloid leukemia cell differentiation protein Mcl-1 (Q07820 whole entry): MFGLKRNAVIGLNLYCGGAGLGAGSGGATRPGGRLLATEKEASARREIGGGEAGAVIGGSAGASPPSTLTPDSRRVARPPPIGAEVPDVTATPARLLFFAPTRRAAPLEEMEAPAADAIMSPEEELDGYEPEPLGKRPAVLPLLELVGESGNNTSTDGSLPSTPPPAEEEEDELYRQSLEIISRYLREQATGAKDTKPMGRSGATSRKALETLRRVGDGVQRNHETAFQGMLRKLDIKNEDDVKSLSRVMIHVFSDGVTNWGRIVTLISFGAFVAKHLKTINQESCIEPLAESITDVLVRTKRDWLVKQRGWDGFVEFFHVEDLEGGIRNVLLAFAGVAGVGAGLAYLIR

[2] = Luminescence Cell-Based Dose Response HTS to Identify Inhibitors of 5'UTR Stem-Loop Driven Prion Protein mRNA Translation in H4 Neuroglioblastoma Cells. [Related pubchem assays: 1827 (Project Summary), 1813 (Primary HTS)]; assay type: functional
[3] = inhibitors of firefly luciferase expression or activity, dose response, H4 neuroglioma cells, luminescence (AID 1990); assay type: functional, cell-based
[4] = target: T2, Polyadenylate-binding protein 1 (Homo sapiens, UniProt P11940); assay: PABP1 MLLE–PAM2 binding inhibitor potency, dose response, biochemical, fluorescence polarization, FITC-PAM2 peptide (AID 602259); assay type: functional; conditions: read-out: IC50_Mean
T2 sequence (P11940 whole entry): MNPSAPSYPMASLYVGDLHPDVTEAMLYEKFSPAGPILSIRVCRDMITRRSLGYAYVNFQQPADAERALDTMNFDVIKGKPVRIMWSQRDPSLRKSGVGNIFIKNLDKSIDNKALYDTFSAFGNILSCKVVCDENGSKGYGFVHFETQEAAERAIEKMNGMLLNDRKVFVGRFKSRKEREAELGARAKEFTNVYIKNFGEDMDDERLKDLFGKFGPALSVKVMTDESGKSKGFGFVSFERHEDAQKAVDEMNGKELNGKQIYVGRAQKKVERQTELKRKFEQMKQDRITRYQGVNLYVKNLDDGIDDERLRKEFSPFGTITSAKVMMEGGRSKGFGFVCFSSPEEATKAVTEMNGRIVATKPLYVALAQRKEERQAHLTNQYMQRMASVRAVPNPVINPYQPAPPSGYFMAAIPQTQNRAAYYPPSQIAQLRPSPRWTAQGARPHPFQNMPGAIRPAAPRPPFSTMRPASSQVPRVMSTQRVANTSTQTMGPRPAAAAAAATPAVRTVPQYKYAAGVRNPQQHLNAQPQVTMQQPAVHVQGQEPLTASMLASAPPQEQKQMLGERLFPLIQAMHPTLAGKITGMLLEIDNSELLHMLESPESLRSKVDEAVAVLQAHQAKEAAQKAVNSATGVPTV

[5] = target: T2, Polyadenylate-binding protein 1; assay: PABP1 MLLE–PAM2 interaction inhibitors, dose response, miRNA deadenylation inhibitor project, biochemical, fluorescence polarization, Cy5-PAM2 peptide, secondary (AID 602260); assay type: functional; conditions: read-out: IC50_Mean
[6] = inhibitors of SNCA 5'UTR-driven reporter translation, confirmation, H4 neuroglioma cells, luminescence (AID 1988); assay type: functional, cell-based
[7] = inhibitors of HIV Env-driven cell fusion, dose response, cherry-pick (AID 652057); assay type: functional, cell-based
[8] = inhibitors of clade B AD8 Env fusion, dose response, cell-based, cherry-pick (AID 652062); assay type: functional;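 further: luciferase signal from cell-cell fusion driven by HIV-1 clade B AD8 Env; potency is for inhibitors of fusion seen as a drop in luminescence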
[9] = target: Glyceraldehyde-3-phosphate dehydrogenase (Homo sapiens, UniProt P04406)
Chain of Glyceraldehyde-3-phosphate dehydrogenase (P04406 whole entry): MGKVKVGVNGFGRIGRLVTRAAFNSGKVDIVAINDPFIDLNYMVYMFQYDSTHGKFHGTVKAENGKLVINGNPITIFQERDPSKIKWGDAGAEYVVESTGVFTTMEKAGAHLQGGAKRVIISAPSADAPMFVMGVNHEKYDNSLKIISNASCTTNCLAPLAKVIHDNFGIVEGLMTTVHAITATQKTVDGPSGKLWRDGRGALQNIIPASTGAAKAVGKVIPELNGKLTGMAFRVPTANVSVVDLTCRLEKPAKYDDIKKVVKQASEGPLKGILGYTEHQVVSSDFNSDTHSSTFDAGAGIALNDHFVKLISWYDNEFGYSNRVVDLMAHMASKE

[10] = HEp-2 cell cytotoxicity, dose response, cytotoxicity control for RSV inhibitor project, HTS (AID 2410); assay type: functional; conditions: human respiratory syncytial virus
[11] = tested on: Streptococcus sp. 'group A'; assay: growth inhibition of control SK(-) GAS strain, dose response, counter-screen for streptokinase expression inhibitor project, luminescence, kanamycin, BacTiterGlo, confirmation (AID 1900); assay type: functional, organism-based
Streptococcus = assay: Group A Streptococcus viability loss, dose response, counter-screen for streptokinase expression inhibitor project, luminescence, BacTiterGlo (AID 1915); assay type: functional, organism-based;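 further: potency for reduction of bacterial viability or growth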
Streptokinase A = target: T3, Streptokinase A (Streptococcus pyogenes serotype M1, UniProt P10520); assay: S. pyogenes streptokinase expression inhibitors, potency, dose response, plasminogen activation absorbance, OD405 (AID 1914); assay type: functional, Streptococcus pyogenes M1 GAS;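 further: secreted streptokinase activity via plasminogen activation per viability signal from cell pellet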
T3 sequence (P10520 whole entry): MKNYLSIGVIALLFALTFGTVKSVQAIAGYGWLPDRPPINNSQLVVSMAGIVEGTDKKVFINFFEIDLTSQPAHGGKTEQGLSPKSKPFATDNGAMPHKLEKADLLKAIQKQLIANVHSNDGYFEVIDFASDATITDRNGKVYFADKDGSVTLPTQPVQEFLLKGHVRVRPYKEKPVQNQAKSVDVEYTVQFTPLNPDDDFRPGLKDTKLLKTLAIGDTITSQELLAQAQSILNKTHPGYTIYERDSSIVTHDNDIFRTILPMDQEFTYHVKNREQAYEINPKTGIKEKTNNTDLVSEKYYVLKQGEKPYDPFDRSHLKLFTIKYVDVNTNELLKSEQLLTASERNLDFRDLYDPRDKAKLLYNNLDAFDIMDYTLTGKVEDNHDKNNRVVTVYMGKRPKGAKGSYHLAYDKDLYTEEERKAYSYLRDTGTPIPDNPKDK

[12] = cytotoxicity toward DRD oncogenic fibroblasts, dose response, cell-based, non-viral oncogenic, luminescence (AID 1934); assay type: functional; conditions: Homo sapiens
BJ [13] = assay: cytotoxicity toward BJ-TERT fibroblasts, dose response, cell-based, RAS-independent, luminescence (AID 1933); assay type: functional; conditions: Homo sapiens
BJ [14] = assay: cells; assay type: functional, cell-based; conditions: Homo sapiens
BJ [15] = assay: cytotoxicity toward BJ-TERT-LT-ST fibroblasts, dose response, cell-based, RAS-independent, luminescence (AID 1935); assay type: functional; conditions: Homo sapiens;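 further: BJ fibroblasts immortalized with TERT plus LT and ST oncogenes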
[16] = Luminescence Cell-Based Dose Retest to Confirm Inhibitors of Cancer Stem Cells. [Related pubchem assays (depositor defined):AID2717, AID2721]; assay type: functional; conditions: Homo sapiens
[17] = cytotoxicity toward NIH3T3 fibroblasts, dose response, counter-screen, cell-based, ATP luminescence, mouse fibroblasts (AID 2010); assay type: functional;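 further: cells exposed to compound for about 90 hours before reading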
[18] = inhibitors of intracellular T. cruzi replication, confirmation, NIH3T3 host cells, beta-gal luminescence (AID 2044); assay type: functional, cell-based;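 further: intracellular parasites grown in NIH/3T3 mouse fibroblasts as host cells; luminescent beta-galactosidase reporter signal from transgenic T. cruzi replicating inside host cells; inhibitors lower the luminescence signal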
Cytochrome P450 2D6 = Cytochrome P450 2D6 (Homo sapiens, UniProt P10635);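 further: CYP2D6 member of a cytochrome P450 panel assay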
Chain of Cytochrome P450 2D6 (P10635 whole entry): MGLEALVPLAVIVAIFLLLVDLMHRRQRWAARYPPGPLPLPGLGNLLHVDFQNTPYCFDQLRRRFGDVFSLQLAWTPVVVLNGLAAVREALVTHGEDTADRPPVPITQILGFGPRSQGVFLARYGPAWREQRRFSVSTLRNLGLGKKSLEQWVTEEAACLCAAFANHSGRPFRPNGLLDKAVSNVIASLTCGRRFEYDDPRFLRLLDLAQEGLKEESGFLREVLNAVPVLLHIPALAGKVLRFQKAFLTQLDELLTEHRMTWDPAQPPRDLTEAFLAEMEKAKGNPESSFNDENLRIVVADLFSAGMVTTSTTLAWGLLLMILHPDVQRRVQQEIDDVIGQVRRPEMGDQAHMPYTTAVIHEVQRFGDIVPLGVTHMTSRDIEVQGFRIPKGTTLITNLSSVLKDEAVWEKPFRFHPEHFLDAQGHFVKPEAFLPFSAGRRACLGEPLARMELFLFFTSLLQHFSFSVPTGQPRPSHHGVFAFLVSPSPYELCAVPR

COC(=O)/C(=C(O)\C=C\c1ccccc1[N+](=O)[O-])c1nc2ccccc2[nH]1
IC50 (H9c2): > 79 µM (inactive)

CCOC(=O)N1CCN(C2=C(NS(=O)(=O)c3ccc(C)cc3)C(=O)c3ccccc3C2=O)CC1
IC50 (Nonstructural protein 1): 21.5 µM (active)

O=C(Cn1nnc2ccccc2c1=O)Nc1ccc2c(c1)CCC2
IC50 (Leucine aminopeptidase): 1.51 µM (active)

O=C(c1ccc2[nH]c3c(c2c1)CCCC3)N1CCN(c2ccc(F)cc2)CC1
IC50 (Nonstructural protein 1): > 100 µM (active)

O=C(O)c1ccc(N/N=C/C2=C(N3CCOCC3)C(=C\c3ccccc3)/CC2)cc1
IC50 [1]: 4.44 µM (active)

CCn1cc(C(=O)N2CCN(c3ccc([N+](=O)[O-])cc3)CC2)c(=O)c2ccc(C)nc21
EC50 [2]: > 120 µM (not active) | EC50 [3]: 21.6 µM (active)

COc1ccc(N2CCN(C(=O)CCC(=O)N3CCOc4ccc(Cl)cc43)CC2)cc1
IC50 (Nonstructural protein 1): > 100 µM (active)

CCCCCc1ccc(C(=O)CCCC)c(S)n1
IC50 [4]: > 66 µM (inactive) | IC50 [5]: > 66 µM (inactive)

COc1cc(/C=C2\N=C(c3ccccc3)NNC2=O)cc(OC)c1OC
EC50 [6]: 8.22 µM (active) | EC50 [2]: 9.91 µM (active) | EC50 [3]: > 120 µM (not active)

O=C(CSc1nnc(-c2cccnc2)n1Cc1ccco1)c1ccccc1
IC50 (H9c2): 32.4 µM (inactive)

O=C(CN1C(=O)c2ccccc2S1(=O)=O)N1CCc2ccccc2C1
EC50 [6]: 12.6 µM (active) | EC50 [2]: 21.4 µM (active) | EC50 [3]: 25.5 µM (active)

C[C@H](CO)N1C[C@H](C)[C@H](CN(C)S(=O)(=O)c2cccs2)Oc2ccc(NC(=O)Cc3cn(C)c4ccccc34)cc2CC1=O
AC50 [7]: 0.883 µM (active) | AC50 [8]: 12.5 µM (active)

COc1cc(OC)c2ccc(=O)oc2c1C(CCN1CCN(c2ccccc2)CC1)c1ccc(N(C)C)cc1 (stereo unspecified)
IC50 (Nonstructural protein 1): 32.5 µM (active)

COc1cccc(N2CCN(C3=C(Cl)C(=O)N(c4ccc([N+](=O)[O-])cc4)C3=O)CC2)c1
IC50 [9]: > 50 µM (inconclusive)

CCCCn1nc(NC(=O)c2cccs2)c2cc3ccccc3nc21
CC50 [10]: 25.5 µM (active) | IC50 (H9c2): > 79 µM (inactive)

O=C1CCCC(=O)C1=NNc1ccc2ncsc2c1
IC50 [4]: > 66 µM (inactive) | IC50 [5]: > 66 µM (inactive)

CCOc1ccc(NC(=O)CSc2nnnn2CC(=O)O)cc1
IC50 (Leucine aminopeptidase): 6.69 µM (active)

Cc1cc2nc(-c3ccc(SCC(=O)N4CCN(C(=O)c5ccco5)CC4)nc3)[nH]c2cc1C
IC50 [1]: 3.63 µM (active)

COc1ccc(C(=O)COC(=O)C(CCCCN2C(=O)C3C4C=CC(C4)C3C2=O)N2C(=O)C3C4C=CC(C4)C3C2=O)cc1 (stereo unspecified)
IC50 (H9c2): > 79 µM (inactive)

O=C(NC(=S)NNS(=O)(=O)c1ccccc1)c1ccccc1[N+](=O)[O-]
IC50 [4]: > 66 µM (inactive) | IC50 [5]: > 66 µM (inactive) | IC50 (Leucine aminopeptidase): 29.9 µM (active)

O=C(Cc1ccc(N2CCNC2=O)cc1)N1CCCC(Nc2cccc(F)c2)C1 (stereo unspecified)
EC50 [6]: 5.11 µM (active) | EC50 [2]: 2.72 µM (active) | EC50 [3]: 9.37 µM (inconclusive)

O=C(CSc1ccc(-c2ccccn2)nn1)NCc1ccc(Cl)cc1
IC50 (Nonstructural protein 1): 41.9 µM (active)

O=C(c1ccc(Cl)s1)N1CCN(c2nc3ccccc3s2)CC1
AC50 [7]: 55.7 µM (active) | AC50 [8]: 11.9 µM (active)

O=C(Nc1nnc(C2CC2)s1)c1cc(-c2ccccc2)nn1-c1ccccc1
EC50 [11]: 10.1 µM (active) | EC50 (Streptococcus): 20.8 µM (active) | EC50 (Streptokinase A): 8.32 µM (active) | CC50 [10]: 13.1 µM (active) | IC50 (H9c2): 12.3 µM (active)

Cc1ccc(NC(=O)CCc2c[nH]c3ccccc23)nc1
EC50 [12]: 17.7 µM (active) | EC50 (BJ [13]): 12.6 µM (active) | EC50 (BJ [14]): 50.4 µM (active) | EC50 (BJ [15]): > 150 µM (inconclusive)

CC(/C=N/NC(=O)c1cc(-c2ccc(Cl)cc2)nc2ccccc12)=C\c1ccco1
EC50 [12]: 2.58 µM (inconclusive) | EC50 (BJ [13]): 2.07 µM (active) | EC50 (BJ [14]): 2.73 µM (active) | EC50 (BJ [15]): 22.4 µM (inconclusive)

CN1C(=O)/C(=C/c2cc(N=Nc3ccccc3)ccc2O)SC1=S
IC50 (Nonstructural protein 1): 14.5 µM (active) | AC50 [16]: 0.644 µM (active)

CC(C)c1ccc2[nH]c(O)c(N=NC(=O)c3cccc(S(=O)(=O)Nc4ccc(Cl)cc4)c3)c2c1
EC50 [6]: > 120 µM (not active) | EC50 [2]: > 120 µM (not active) | EC50 [3]: > 120 µM (not active)

COc1cccc(Nc2ncnc3[nH]cnc23)c1
IC50 (Leucine aminopeptidase): 95.1 µM (active)

CCCN(CC(=O)Nc1ccc(F)c(F)c1F)C(=O)CCc1nc(O)c2ccccc2n1
IC50 (H9c2): 9.51 µM (active)

O=C(O)CCCCCN1C(=O)/C(=C\c2ccc(-c3ccc(Cl)cc3)o2)SC1=S
IC50 [1]: 1.27 µM (active)

COC(=O)c1sc(=S)n(-c2cc(F)ccc2F)c1N
IC50 [4]: > 66 µM (inactive) | IC50 [5]: > 66 µM (inactive)

CC(C)Oc1ccc(C(=O)NC2(C(F)(F)F)N=C3SCCN3C2=O)cc1 (stereo unspecified)
IC50 [4]: > 66 µM (inactive) | IC50 [5]: > 66 µM (inactive)

C/C(=N\NC(=O)c1ccccc1-n1cccc1)c1ccccn1
IC50 (H9c2): 38.8 µM (inactive)

COc1ccc(NC(=O)c2cc3c(=O)n(C)c4ccccc4c3n2C)cc1OC
IC50 (H9c2): > 79 µM (inactive)

Cc1ccc(-n2cnn(-c3ccc([N+](=O)[O-])cc3[N+](=O)[O-])c2=O)cc1
IC50 (Nonstructural protein 1): > 100 µM (active) | EC50 [17]: > 60 µM (not active) | EC50 [18]: 1.54 µM (active)

COC(=O)c1ccccc1NC(=S)NC(=O)c1ccc2c(c1)OCO2
IC50 [4]: > 66 µM (inactive) | IC50 [5]: > 66 µM (inactive)

CCCCC1CCC(c2nc(-c3ccccn3)no2)CC1 (stereo unspecified)
EC50 [11]: 16.1 µM (active) | EC50 (Streptococcus): 21 µM (active) | EC50 (Streptokinase A): > 150 µM (not active) | AC50 (Cytochrome P450 2D6): 25.1 µM (inconclusive) | EC50 [6]: 2.95 µM (active) | EC50 [2]: > 60 µM (not active) | EC50 [3]: 9.12 µM (inconclusive)

Cc1cc(C(=O)COC(=O)c2ccc[nH]c2=O)c(C)n1C1CC1
IC50 (Leucine aminopeptidase): 13.3 µM (active)

CC1CCN(c2ccccc2NC(=S)NC(=O)c2ccco2)CC1
IC50 [4]: > 66 µM (inactive) | IC50 [5]: > 66 µM (inactive)

Oc1nc2cccc(F)c2n2cccc12
CC50 [10]: 30 µM (active) | IC50 (H9c2): > 79 µM (inactive)
